Measurements from patent EP1506767A1, “Use of a carbonylated amine for stimulating hairgrowth and/or for slowing down their loss” (L'OREAL, priority 2003, dated 2005).

Key:
canaux calcium [1] = test: Calcium flux inhibition (IC50Ca2+) on SK-N-SH nerve cells; assay type: cell-based; conditions: concentration inhibiting 50 % of Ca2+ release, read-out: IC50Ca2+ Sur cellules nerveuses SK-N-SH
From the text: Par ailleurs, le demandeur a trouvé que les amines de formule (I) et en particulier de formule (II) sont des inhibiteurs de canaux calcium (ou de flux calcique) comme […] ou […]. Or, les inhibiteurs de canaux sont connus comme actifs dans le traitement de la chute des cheveux et sur leur effet bénéfique sur la microcirculation (confère description ci-dessus). Pour qu'une substance soit reconnue comme un inhibiteur des canaux calcium, elle doit pouvoir diminuer la concentration intracellulaire en calcium ou diminuer la liaison du calcium aux protéines intracellulaires comme par exemple la calmoduline, tel que cela est notamment décrit par Galizzi, J. P. et al., J. Biol. Chem. 1987, 262 p 6947; par Y. Okamiya et al., Eur. J. Pharmacol. 1991, 205, […]. Wagner et al., J. Neurosci. 1988, 8, […]. Lee et al., Life Sci. 1984, 35, p 721; par Schoemaker H. et Lauger S. Eur. J. Pharmacol. 1985, 111, p 273 ou encore I. J. Reynolds et al., J. Pharmacol. Exp. Ther. 1986, 237, p 731. Selon le protocole indiqué dans ces documents, […]'inhibition de flux calcique des composés (3), (4), (6) et (7), en comparaison […] sont donnés dans le tableau ci-après.

canaux calcium [2] = test: Calcium flux inhibition (IC50Ca2+) on HDFa skin fibroblast cells; assay type: cell-based; conditions: concentration inhibiting 50 % of Ca2+ release, read-out: IC50Ca2+ Sur cellules issues de fibroblastes de la peau HDFa
From the text: Par ailleurs, le demandeur a trouvé que les amines de formule (I) et en particulier de formule (II) sont des inhibiteurs de canaux calcium (ou de flux calcique) comme le vérapamil ou l'alvérine. Or, les inhibiteurs de canaux sont connus comme actifs dans le traitement de la chute des cheveux et sur leur effet bénéfique sur la microcirculation (confère description ci-dessus).
Pour qu'une substance soit reconnue comme un inhibiteur des canaux calcium, elle doit pouvoir diminuer la concentration intracellulaire en calcium ou diminuer la liaison du calcium aux protéines intracellulaires comme par exemple la calmoduline, tel que cela est notamment décrit par Galizzi, J. P. et al., J. Biol. Chem. 1987, 262 p 6947; par Y. Okamiya et al., Eur. J. Pharmacol. 1991, 205, p 49; par J. A. Wagner et al., J. Neurosci. 1988, 8, p 3354; par H. R. Lee et al., Life Sci. 1984, 35, p 721; par Schoemaker H. et Lauger S. Eur. J. Pharmacol. 1985, 111, p 273 ou encore I. J. Reynolds et al., J. Pharmacol. Exp. Ther. 1986, 237, p 731.
Selon le protocole indiqué dans ces documents, le demandeur a déterminé l'IC50Ca2+ d'inhibition de flux calcique des composés (3), (4), (6) et (7), en comparaison avec le vérapamil; les résultats sont donnés dans le tableau ci-après. IC50Ca2+ représente la concentration inhibitrice de 50 % de libération de Ca^2+.

[3] = tested on: coculture nerfs/muscles (cellules musculaires striées humaines); test: Inhibition of muscle fibre contractions in a nerve/muscle coculture model; assay type: cell-based, humaines; rat; conditions: 10, 50, 100 µM; 60 s incubation; three muscle fibres; triplicate
Protocol: La molécule de l'exemple 1 a été testée à différentes concentrations, à savoir 10, 50 et 100 µM, sur un modèle de coculture nerfs/muscles, qui permet de recréer un arc moteur en innervant des cellules musculaires striées humaines avec des explants de moelle épinière et de ganglions rachidiens d'embryons de rat.
Ce test est prédictif d'un effet inhibiteur des contractions des fibres musculaires.
Des cellules musculaires humaines, issues de prélèvements de muscles striés de donneurs sains, sont ensemencées dans des puits de 1,8 cm^2 de section (boîtes de culture de 24 puits). Après 10 jours de culture, ces cellules forment une monocouche et fusionnent. A ce stade, des explants de moelle épinière d'embryons de rat de 13 jours contenant les ganglions rachidiens sont déposés sur la culture.
La croissance des neurites est visible en dehors de l'explant de moelle épinière après un jour de culture. Les premières contractions des fibres musculaires sont observées après 5 à 6 jours de coculture et après 3 semaines, toutes les fibres musculaires au voisinage des explants se contractent.
Les cocultures sont utilisées après 21 jours, quand les fibres musculaires sont striées et possèdent des jonctions neuromusculaires différenciées matures. […]

Row | SMILES | IC50 (canaux calcium [1]) | IC50 (canaux calcium [2]) | contractions des fibres musculaires [3]
1 | CCN(CCCc1ccccc1)CCCc1ccccc1 [alvérine, reference compound] | 30 µM | – | –
2 | CCCCCC(=O)CCN(CCCc1ccccc1)CCC(=O)CCCCC [compound 3] | 7 µM | 18 µM | –
3 | CCCCCC(=O)CCN(CC)CCCc1ccccc1 [compound 4, 1-(N-éthyl, (3-phényl-)propylamino) octan-3-one] | 18 µM | 30 µM | bloque les contractions
4 | CCCCCC(=O)CCN(CC)CCc1ccc(OC)c(OC)c1 [compound 6] | 32 µM | 22 µM | –
5 | CCCCCC(=O)CCN(CC)Cc1ccccc1 [compound 7] | 17 µM | 18 µM | –
6 | COc1ccc([C@@H]2Sc3ccccc3N(CCN(C)C)C(=O)[C@@H]2OC(C)=O)cc1 [diltiazem, reference compound] | > 45 µM | – | –
7 | COC(=O)C1=C(C)NC(C)=C(C(=O)OC)C1c1ccccc1[N+](=O)[O-] [nifédipine, reference compound] | 29 µM | – | –
